Results from patent US20240366693A1, “COMPOSITIONS FOR ENHANCING IMMUNOTHERAPY EFFICACY IN COLORECTAL CANCER TREATMENT” (The Chinese University of Hong Kong, priority 2023, published 2024).

Assays:
CD4+ T cells = assay: Foxp3+ Treg differentiation of CD4+ T cells in vitro; type: cell-based, mouse
Method: T cells were isolated from spleens of tumour-bearing mice by negative selection using magnetic cell separation (EasySep mouse T cell isolation kit, CD8+ T cell isolation kit or CD4+ CD25+ Regulatory T cell Isolation Kit II; STEMCELL Technologies, Vancouver, Canada). Isolated T cells were cultured in Roswell Park Memorial Institute 1640 medium supplemented with 10% FBS, 50 μM β-mercaptoethanol, 10 ng/ml mouse recombinant interleukin-2 (IL-2), 0.1 ng/mL transforming growth factor β (TGFβ) and activated with Dynabeads mouse anti-CD3/CD28 beads (Thermo Fisher Scientific, Waltham, MA) for 72 hours. Cells were then collected for analysis.

human AHR protein = target: T1, human AHR protein (Homo sapiens, UniProt P35869); assay: biochemical; type: binding
T1 sequence (P35869 11-848): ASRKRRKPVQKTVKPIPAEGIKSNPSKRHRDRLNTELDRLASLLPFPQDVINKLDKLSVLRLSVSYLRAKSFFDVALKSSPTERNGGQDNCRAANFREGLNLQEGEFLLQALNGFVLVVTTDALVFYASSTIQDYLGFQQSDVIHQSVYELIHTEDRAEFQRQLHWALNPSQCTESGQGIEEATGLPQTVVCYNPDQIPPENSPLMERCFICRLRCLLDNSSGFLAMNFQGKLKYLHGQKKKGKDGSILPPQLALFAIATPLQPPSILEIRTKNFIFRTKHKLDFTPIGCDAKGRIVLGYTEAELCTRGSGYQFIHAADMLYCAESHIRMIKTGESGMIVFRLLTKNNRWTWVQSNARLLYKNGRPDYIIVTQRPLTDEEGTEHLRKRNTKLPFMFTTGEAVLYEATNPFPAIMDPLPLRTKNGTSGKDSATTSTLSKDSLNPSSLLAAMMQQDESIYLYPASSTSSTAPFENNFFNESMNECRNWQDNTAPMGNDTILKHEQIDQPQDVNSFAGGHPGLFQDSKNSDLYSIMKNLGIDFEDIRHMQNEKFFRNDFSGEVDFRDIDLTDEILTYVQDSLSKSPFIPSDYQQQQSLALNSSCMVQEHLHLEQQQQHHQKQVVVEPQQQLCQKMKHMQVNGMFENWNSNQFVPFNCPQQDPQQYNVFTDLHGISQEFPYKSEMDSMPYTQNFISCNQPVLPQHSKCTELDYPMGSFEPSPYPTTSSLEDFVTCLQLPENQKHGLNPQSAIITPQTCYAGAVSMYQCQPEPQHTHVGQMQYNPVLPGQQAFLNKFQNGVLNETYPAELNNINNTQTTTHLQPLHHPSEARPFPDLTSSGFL
Description: We also performed the surface plasma resonance (SPR) assay to explore the interaction between ICA/Kyn with the human AHR receptor. […] These support our hypothesis that ICA displaces Kyn from AHR receptor and inhibited Kyn-mediated Treg differentiation through receptor competition.

CT26 = assay: ICA model in CT26 syngeneic mice with anti-PD1 and Kyn supplementation; type: in vivo, mouse; conditions: Kyn 10 mg/kg i.p. twice weekly
Method: For indolecarboxylic acid (ICA) model, ICA (18 mg/kg, Sigma-Aldrich, St. Louis, MO) was gavaged to mice daily. Tumour inoculation and dosing schedule of anti-PD1 or isotype control is the same as described above. After the outgrowth of palpable tumours, kynurenine (Kyn, 10 mg/kg, Sigma-Aldrich) was intraperitoneally injected into mice twice weekly.

MC-38 = assay: MC38 rectum orthotopic tumour model; type: in vivo, mouse
Method: A MSI type mouse CRC cell line, MC-38 cell mix [5×10^5 cells in 10 μL Matrigel (354248, Corning, Manassas, US) per mouse] was orthotopically implanted into the rectum of C57BL/6. […] RMP1-14, Bio X Cell, West Lebanon, US) or control IgG (100 μg per mouse, BP0089, Colone: 2A-3, Bio X Cell) was injected intraperitoneally into MC-38 bearing mice, and followed by total five injections with three days interval one week after MC38 implantation. For tumour-infiltrating immune cell analysis, tumour from MC-38 and CT-26 bearing rectal orthotopic mouse models was minced on ice and digested in PBS buffer containing 0.5 mg/mL collagenase IV and 0.25 mg/ml DNase I at 37° C. for 30 min. After digestion, tumour tissue was filtered through a 70 μm cell strainers, and then distributed into different panels. For the surface staining of MDSC, cells were stained with Brilliant Violet 605 anti-mouse CD45 antibody (30-F11) (103140, BioLegend), PerCP/Cyanine5.5 anti-mouse/human CD11b antibody (M1/70) (101228, BioLegend), PE anti-mouse Ly-6G/Ly-6C (Gr-1) antibody (RB6-8C5). MDSC was gated in CD45^+ CD11b^+ Gr-1^+. For CD8 functional markers staining, the procedures were similar with the in vitro T cell analysis. Antibodies used for staining are as following: Brilliant Violet 605 anti-mouse CD45 antibody (30-F11) (103140, BioLegend), PE anti-mouse CD3 antibody (17A2) (100206, BioLegend), Brilliant Violet anti-mouse CD8a antibody (53-6.7) (100738, BioLegend), PE/Cyanine5 anti-mouse CD4 antibody (GK1.5) (100410, BioLegend), PE/Cyanine7 anti-human/mouse Granzyme B recombinant antibody (QA16A02) (372214, BioLegend), FITC anti-mouse IFN-γ antibody (XMG1.2) (505806, BioLegend), Brilliant Violet 711 anti-moue TNF-α (MP6-XT22) (506349, BioLegend). Flow Cytometry was performed on FACSAria cell sorter (BD Biosciences, Franklin Lakes, US). Data was analyzed by FlowJo 10.4.

CT-26 = assay: CT26 rectum orthotopic tumour model; type: in vivo, mouse
Description: CT-26 tumour-bearing BALB/c mice with the same setting and treatment of MC-38 orthotopic model was developed to evaluate the efficacy of αPD-1 antibody immunotherapy on microsatellite stable (MSS)-type colorectal cancer. All experimental procedures were approved by the Chinese University of Hong Kong Animal Ethics Committee.
For tumour-infiltrating immune cell analysis, tumour from MC-38 and CT-26 bearing rectal orthotopic mouse models was minced on ice and digested in PBS buffer containing 0.5 mg/mL collagenase IV and 0.25 mg/ml DNase I at 37° C. for 30 min. After digestion, tumour tissue was filtered through a 70 μm cell strainers, and then distributed into different panels. For the surface staining of MDSC, cells were stained with Brilliant Violet 605 anti-mouse CD45 antibody (30-F11) (103140, BioLegend), PerCP/Cyanine5.5 anti-mouse/human CD11b antibody (M1/70) (101228, BioLegend), PE anti-mouse Ly-6G/Ly-6C (Gr-1) antibody (RB6-8C5). MDSC was gated in CD45^+ CD11b^+ Gr-1^+. For CD8 functional markers staining, the procedures were similar with the in vitro T cell analysis. Antibodies used for staining are as following: Brilliant Violet 605 anti-mouse CD45 antibody (30-F11) (103140, BioLegend), PE anti-mouse CD3 antibody (17A2) (100206, BioLegend), Brilliant Violet anti-mouse CD8a antibody (53-6.7) (100738, BioLegend), PE/Cyanine5 anti-mouse CD4 antibody (GK1.5) (100410, BioLegend), PE/Cyanine7 anti-human/mouse Granzyme B recombinant antibody (QA16A02) (372214, BioLegend), FITC anti-mouse IFN-γ antibody (XMG1.2) (505806, BioLegend), Brilliant Violet 711 anti-moue TNF-α (MP6-XT22) (506349, BioLegend). Flow Cytometry was performed on FACSAria cell sorter (BD Biosciences, Franklin Lakes, US). Data was analyzed by FlowJo 10.4.

CD8+ T cells = assay: Cytotoxic CD8+ T cell markers, T cells from human PBMC; type: cell-based; conditions: TH1020 with butyrate
Method: T cells isolated from healthy human peripheral blood mononuclear cells (PBMC) using immunomagnetic negative selection kit (17951, Stemcell Technologies, Vancouver, CA). Isolated T cells were then cultured in complete RPMI-1640 medium supplied with human CD3/CD28 magnet beads (11161D, Thermo Fisher Scientific, Waltham, US) and 30 U/ml recombinant human IL-2 (589104, BioLgend, San Diego, US) for expiation and activation for three days. Mouse T cells were isolated from the spleen of naïve mice and purified with Mouse T cell isolation kit (19851, Thermo Fisher Scientific, Waltham, US), cultured in complete RPMI-1640 medium with mouse CD3/CD28 beads (11456D, Thermo Fisher Scientific, Waltham, US) and 30 U/ml recombinant mouse IL-2 (575404, BioLegend, San Diego, US).
Cytotoxic CD8+ T cell markers Granzyme B, IFN-γ, TNF-α under the in vitro treatments of R.i CM, NaBu or TLR5 inbibitor TH1020 (HY-116961, MedChemExpress, Monmouth Junction, US) were analyzed with flow cytometry. Isolated human T cells were stimulated with 30 ng/ml PMA, 1 μg/ml ionomycin and 2.5 μg/ml monensin in complete RPMI-1640 medium at 37° C. for 4 hours. […]

NF-κB = assay: Phospho-NF-κB p65 in activated Jurkat E6.1 T cells; type: cell-based, human; conditions: TH1020
Method: Phospho-NF-κB p65 (Ser536) Rabbit mAb (3033, Cell Signalling Technology, Danvers, US, 1:1000) and NF-κB p65 (D14E12) Rabbit mAb (8242, Cell Signalling Technology, Danvers, US, 1:1000) were used to measure NF-κB nuclear translocation in αCD3/αCD28/IL2 activated Jurkat E6.1 T cells.
Normal human epithelial cell NCM460, human CRC cell lines HCT116, LoVo, SW480, and mouse CRC cell lines MC38 and CT26 were cultured in Dulbecco's Modified Eagle's Medium (DMEM) with 10% fetal bovine serum (FBS) and 1% penicillin-streptomycin (P/S). Jurkat E6.1 (TIB-152, ATCC) was cultured in RPMI-1640 supplied with 10% FBS and 1% penicillin-streptomycin and activated in 3 μg/ml anti-CD3 (300332, BioLgend, San Diego, US), 5 μg/ml anti-human CD28 (302934, BioLgend, San Diego, US) and 100 IU/ml recombinant human IL-2 (589104, BioLgend, San Diego, US) pre-coated wells for 3 days.

[1] = treatment alone vs αPD-1 therapy and control groups

With `Cc1ccccc1N=Nc1ccc(NC(=O)c2ccnn2C)c(C)c1` [CH-233191, reference compound] the “Kyn and ICA effects on Treg differentiation” value (CD4+ T cells; CH-233191 10 μM) was “abolished both Kyn and ICA effects in mediating Treg differentiation”.
In the case of `O=Cc1c[nH]c2ccccc12` [IAld, indole-3-carboxaldehyde, reference compound], the “Treg differentiation, treatment alone” value (CD4+ T cells; naïve CD4+ T cells, without Kyn) is reported as “none significantly affected Treg differentiation”.
With `Nc1ccccc1C(=O)CC(N)C(=O)O` (centres unmarked) [Kyn, Kynurenine, reference compound] the Treg differentiation (CD4+ T cells; Kyn 50 μM, P<0.0001) was “significantly induced Treg differentiation”, the Kd (human AHR protein) was 61 µM and the “effect of Kyn supplementation on ICA immune effects” value (CT26) was “also reversed by Kyn supplementation”. For the same compound, the “effect of Kyn supplementation on ICA tumour effect” value (CT26) was “reversed the effect of ICA”.
`CCCC(=O)[O-].[Na+]` [NaBu, sodium butyrate] was tested, and the “efficiency of αPD-1 therapy in combination” value (MC-38; combination of αPD-1 with R.i or NaBu) was “did not enhance the efficiency of αPD-1 therapy”, the “MC38 orthotopic tumour growth” value (MC-38; monotreatment, R.i 1×10^8 CFU daily gavage, 150 mM NaBu in drinking water, αPD-1 100 μg per mouse) was “inhibited MC38 orthotopic tumour growth” and the “Granzyme B+, IFN-γ+ and TNF-α+ CD8+ T cells” value (MC-38; mouse, in vivo) was “increased”. The MDSCs (MC-38; mouse, in vivo) was “decreasing MDSCs”, the “tumour infiltrating CD8+ T cells” value (MC-38; mouse, in vivo) was “increased infiltrating CD8^+ T cells” and the “anti-tumour effects in combination with anti-PD-1” value (CT-26; combination with anti-PD-1) was “further heightened the anti-tumour effects”. For the same compound, the “infiltrating and cytotoxic CD8+ T cells in combination with anti-PD-1” value (CT-26; combination with anti-PD-1) was “additional effects on these immune cells”, the “proportion of MDSCs in tumours” value (CT-26; monotherapy) was “reduced the proportion of MDSCs in tumours” and the “Granzyme B+, IFN-γ and TNF-α+ CD8+ T cells” value (CT-26; monotreatment) was “significantly increased”. For the same compound, the “proportion of infiltrating CD8+ T cells” value (CT-26; monotreatment) was “significantly increased”, the tumour size (CT-26; [1]) was “still reduced” and the tumour weight (CT-26; [1]) was “still reduced”.
In the case of `c1ccc(Cn2c(Sc3ncnc4c3sc3ncccc34)nnc2-c2ccncc2)cc1` [TH1020, reference compound], the “butyrate promotion of Granzyme B, IFN-γ and TNF-α in CD8+ T cells under TLR5 antagonist” value (CD8+ T cells) is reported as “abolished the effective promotion of butyrate on Granzyme B, IFN-γ and TNF-α in CD8+ T cells” and the “R.i CM- and butyrate-induced phospho-NF-κB under TLR5 antagonist” value (NF-κB) is reported as “inhibited by Th1020”.
